Test results from patent US20210395239A1 (Hoffmann-La Roche Inc., priority 2018, published 2021).
pIC50: −log10 of the molar value.

Assays:
[1] = molecular target: T1, human TLR7 (Homo sapiens, UniProt Q9NYK1); test: HEK293-Blue-hTLR-7 cells assay (SEAP reporter, R848 stimulation); assay type: cell-based; conditions: HEK293-Blue-hTLR7 cells, R848, 20 hrs; read-out: HEK/hTLR7 IC50
T1 construct: host or cells: HEK293 (HEK-Blue hTLR7)
T1 sequence (Q9NYK1 27-1049): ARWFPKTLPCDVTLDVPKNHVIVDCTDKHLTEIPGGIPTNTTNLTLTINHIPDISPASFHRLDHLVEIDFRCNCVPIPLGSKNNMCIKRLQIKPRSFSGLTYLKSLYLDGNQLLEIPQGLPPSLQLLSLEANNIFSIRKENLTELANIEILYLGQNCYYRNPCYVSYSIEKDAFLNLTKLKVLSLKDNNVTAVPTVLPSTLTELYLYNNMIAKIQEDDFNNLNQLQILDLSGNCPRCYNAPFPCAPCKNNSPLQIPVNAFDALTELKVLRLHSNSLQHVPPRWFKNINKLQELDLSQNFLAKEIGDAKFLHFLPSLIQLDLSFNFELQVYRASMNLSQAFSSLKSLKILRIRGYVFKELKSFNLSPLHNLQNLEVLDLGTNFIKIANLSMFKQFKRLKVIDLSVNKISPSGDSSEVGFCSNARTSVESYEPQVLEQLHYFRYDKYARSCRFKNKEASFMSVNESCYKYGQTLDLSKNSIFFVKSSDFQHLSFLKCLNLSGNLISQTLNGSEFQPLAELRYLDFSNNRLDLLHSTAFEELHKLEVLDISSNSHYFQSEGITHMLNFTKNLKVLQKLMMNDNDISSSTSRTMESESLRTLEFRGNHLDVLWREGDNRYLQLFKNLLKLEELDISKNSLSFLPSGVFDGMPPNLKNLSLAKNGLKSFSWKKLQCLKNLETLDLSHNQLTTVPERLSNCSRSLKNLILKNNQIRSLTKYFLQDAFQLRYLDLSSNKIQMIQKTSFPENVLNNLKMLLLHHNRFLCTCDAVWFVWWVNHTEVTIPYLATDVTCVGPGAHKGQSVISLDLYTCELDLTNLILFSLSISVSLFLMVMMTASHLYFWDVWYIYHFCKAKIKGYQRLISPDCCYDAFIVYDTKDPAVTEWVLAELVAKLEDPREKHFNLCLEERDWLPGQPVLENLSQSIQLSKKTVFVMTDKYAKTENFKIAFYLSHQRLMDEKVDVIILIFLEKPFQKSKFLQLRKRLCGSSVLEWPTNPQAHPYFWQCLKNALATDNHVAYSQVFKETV
How it was run: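 HEK293-Blue-hTLR7 cells (NF-κB/AP-1-driven SEAP reporter) were stimulated with R848 alongside serially diluted compound at 1% final DMSO for 20 h at 37 °C. Supernatant SEAP was then developed with QUANTI-Blue for 2 h at 37 °C and absorbance read at 620–655 nm; antagonism is measured as reduced reporter signal.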

[2] = molecular target: T2, CYP2C9 (Homo sapiens, UniProt P11712); test: CYP inhibition assay in human liver microsome, CYP2C9; assay type: in vitro ADME; conditions: human, human liver microsomes, probe diclofenac 5 μM, substrate diclofenac 5 μM, first value of 2C9/2D6/3A4
T2 construct: tissue BD-Gentest 452117; host or cells: human liver microsomes
T2 sequence (P11712 whole entry): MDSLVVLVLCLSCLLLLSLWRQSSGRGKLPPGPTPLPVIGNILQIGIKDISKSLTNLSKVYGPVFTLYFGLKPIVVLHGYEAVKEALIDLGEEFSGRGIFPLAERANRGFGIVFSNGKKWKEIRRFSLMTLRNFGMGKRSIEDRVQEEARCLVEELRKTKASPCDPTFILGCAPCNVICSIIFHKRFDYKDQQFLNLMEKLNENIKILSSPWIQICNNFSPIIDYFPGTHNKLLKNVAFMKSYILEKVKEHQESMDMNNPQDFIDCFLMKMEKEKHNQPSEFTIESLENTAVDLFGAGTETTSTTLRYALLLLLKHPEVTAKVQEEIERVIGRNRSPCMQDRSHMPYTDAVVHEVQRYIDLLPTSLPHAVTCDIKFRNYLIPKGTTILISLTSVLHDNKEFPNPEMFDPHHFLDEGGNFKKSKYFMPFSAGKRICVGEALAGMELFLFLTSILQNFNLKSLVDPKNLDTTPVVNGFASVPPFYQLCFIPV
Procedure: (§1) This is a high throughput screening assay used for assessment of reversible inhibition of CYP2C9, CYP2D6, and CYP3A4 activity of test compounds in human liver microsome (HLM) in early discovery stage.
(§2) 10 mM DMSO stock solutions of test compounds were diluted in DMSO to generate 2 mM intermediate stock solution. 250 nL, of intermediate stock solution were transferred in duplicate into 3 separate 384 well microtitre plates (assay-ready plates). A mixture of HLM and each substrate was made up. 45 μL of HLM substrate mix was then transferred to each well of an assay ready plate and mixed. The negative (solvent) and positive controls (standard inhibitor for each CYP) were included in each assay ready plate. The assay ready plate was warmed to 37° C. in an incubator over 10 minutes. 5 μL pre-warmed NADPH regenerating system was added to each incubation well to start the reaction. Final incubation volume was 50 μL. The assay plate then was placed back in the 37° C. incubator. After incubation (10 minutes for CYP2D6) for 5 minutes, incubates were quenched by addition of 50 μL 100% acetonitrile containing internal standards (400 ng/mL 13C6-4′-OH-Diclofenac, 20 ng/mL D3-Dextrorphan and 20 ng/mL D4-1′OH-Midazolam). The supernatants were collected for RapidFire/MS/MS analysis.
(§3) RapidFire online solid phase extraction/sample injection system (Agilent) coupled with API4000 triple quadrupole mass spectrometer (AB Sciex) were used for sample analysis. The mobile phase composed of acetonitrile and water supplemented with 0.1% formic acid. A C4 solid phase extraction cartridge is used for sample separation. MS detection is achieved in positive ion MRM mode.
(§4) Peak areas for substrate, metabolite and internal standard are determined using the RapidFire integrator software (version 3.6.12009.12296). Peak area ratios (PAR) of metabolite and internal standard (stable-labelled metabolite) are then calculated. The measurement window for each experiment is then defined:
(§5) PAR (0% activity)=average PAR for all incubations containing concentrated inhibitor; Par (100% activity)=average PAR for all incubations containing no inhibitor (DMSO controls); % Activity (test inhibitor)=[PAR (test inhibitor)−PAR (0% activity)]/[PAR (100% activity)−PAR (0% activity)]; % Inhibition (test inhibitor)=100-% Activity (test inhibitor).

[3] = molecular target: T3, CYP3A4 (Homo sapiens, UniProt P08684); test: CYP inhibition assay in human liver microsome, CYP3A4; assay type: in vitro ADME; conditions: human, human liver microsomes, probe midazolam 5 μM, substrate midazolam 5 μM, third value of 2C9/2D6/3A4
T3 construct: tissue BD-Gentest 452117; host or cells: human liver microsomes
T3 sequence (P08684 whole entry): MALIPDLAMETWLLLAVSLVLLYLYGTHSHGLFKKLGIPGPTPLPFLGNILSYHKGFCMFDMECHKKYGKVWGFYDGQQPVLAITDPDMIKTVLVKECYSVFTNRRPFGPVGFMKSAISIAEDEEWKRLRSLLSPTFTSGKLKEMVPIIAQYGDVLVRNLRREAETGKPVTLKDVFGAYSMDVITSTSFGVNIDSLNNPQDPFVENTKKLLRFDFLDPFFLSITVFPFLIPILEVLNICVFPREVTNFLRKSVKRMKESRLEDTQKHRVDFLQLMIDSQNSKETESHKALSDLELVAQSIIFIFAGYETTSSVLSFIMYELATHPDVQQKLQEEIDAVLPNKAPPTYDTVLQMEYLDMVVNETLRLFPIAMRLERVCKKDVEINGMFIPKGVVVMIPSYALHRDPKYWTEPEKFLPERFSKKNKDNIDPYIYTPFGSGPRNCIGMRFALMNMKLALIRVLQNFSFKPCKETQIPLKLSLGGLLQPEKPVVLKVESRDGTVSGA
Procedure: as §1, §2, §3, §4, §5

pIC50 [1] | inhibition at 5 min, 10 µM [2] [%] | inhibition at 5 min, 10 µM [3] [%] | SMILES
7.08 | -7 | 14 | C[C@@H]1CN(c2ccc(C#N)c3ncccc23)C[C@H](CN2CCC(c3cccc(N4CCNCC4)c3)C2)O1 (stereo partly drawn) [Example 1, 5-[(2R,6S)-2-methyl-6-[[3-(3-piperazin-1-ylphenyl)pyrrolidin-1-yl]methyl]morpholin-4-yl]quinoline-8-carbonitrile]
7.03 | 2 | 18 | C[C@@H]1CN(c2ccc(C#N)c3ncccc23)C[C@H](CN2CCC(c3cccc(C4CCNCC4)c3)CC2)O1 [Example 2, 5-[(2R,6S)-2-methyl-6-[[4-[3-(4-piperidyl)phenyl]-1-piperidyl]methyl]morpholin-4-yl]quinoline-8-carbonitrile]
7.96 | -18 | 4.5 | C[C@@H]1CN(c2ccc(C#N)c3ncccc23)C[C@H](CN2CC(c3ccc(N4CCNCC4)cc3)C2)O1 [Example 3, 5-[(2R,6S)-2-methyl-6-[[3-(4-piperazin-1-ylphenyl)azetidin-1-yl]methyl]morpholin-4-yl]quinoline-8-carbonitrile]
7.80 | 5.5 | 0.5 | C[C@@H]1CN(c2ccc(C#N)c3ncccc23)C[C@H](CN2CC(c3cccc(N4CCNCC4)c3)C2)O1 [Example 4, 5-[(2R,6S)-2-methyl-6-[[3-(3-piperazin-1-ylphenyl)azetidin-1-yl]methyl]morpholin-4-yl]quinoline-8-carbonitrile]
7.66 | -1 | -12 | CO[C@H]1CN(c2cc(C)nc(N3CCN(C[C@H]4CN(c5ccc(C#N)c6nccnc56)C[C@@H](C)O4)CC3)n2)C[C@@H]1N [Example 104, 8-[(2S,6R)-2-[[4-[4-[(3S,4S)-3-amino-4-methoxy-pyrrolidin-1-yl]-6-methyl-pyrimidin-2-yl]piperazin-1-yl]methyl]-6-methyl-morpholin-4-yl]quinoxaline-5-carbonitrile]
8.05 | 17 | 20.5 | CO[C@H]1CN(c2nc(C)cc(N3CCN(C[C@H]4CN(c5ccc(C#N)c6nccnc56)C[C@@H](C)O4)CC3)n2)C[C@@H]1N [Example 106, 8-[(2S,6R)-2-[[4-[2-[(3S,4S)-3-amino-4-methoxy-pyrrolidin-1-yl]-6-methyl-pyrimidin-4-yl]piperazin-1-yl]methyl]-6-methyl-morpholin-4-yl]quinoxaline-5-carbonitrile]
8.10 | 19.5 | 34.5 | C[C@@H]1CN(c2ccc(C#N)c3nccnc23)C[C@H](CN2CCN(c3ccnc(N4C[C@H](N)[C@@H](F)C4)n3)CC2)O1 [Example 107, 8-[(2S,6R)-2-[[4-[2-[(3S,4S)-3-amino-4-fluoro-pyrrolidin-1-yl]pyrimidin-4-yl]piperazin-1-yl]methyl]-6-methyl-morpholin-4-yl]quinoxaline-5-carbonitrile]
7.85 | 22 | 44 | C[C@@H]1CN(c2ccc(C#N)c3ncccc23)C[C@H](CN2CCN(c3ccnc(N4C[C@H](N)[C@@H](F)C4)n3)CC2)O1 [Example 110, 5-[(2S,6R)-2-[[4-[2-[(3S,4S)-3-amino-4-fluoro-pyrrolidin-1-yl]pyrimidin-4-yl]piperazin-1-yl]methyl]-6-methyl-morpholin-4-yl]quinoline-8-carbonitrile]
8.40 | 0.5 | -5 | Cc1cc(N2CCN(C[C@H]3CN(c4ccc(C#N)c5nccnc45)C[C@@H](C)O3)CC2)nc(N2CC(N)C2)n1 [Example 112, 8-[(2S,6R)-2-[[4-[2-(3-aminoazetidin-1-yl)-6-methyl-pyrimidin-4-yl]piperazin-1-yl]methyl]-6-methyl-morpholin-4-yl]quinoxaline-5-carbonitrile]
